Measured values published in USRE42890E1, “Furazanobenzimidazoles” (Basilea Pharmaceutica AG, priority 2003, dated 2011).

Legend:
Jurkat = assay: MTS proliferation assay, Jurkat; assay type: cell-based, human; conditions: Homo sapiens, 72 h incubation, read-out: MTS proliferation assay IC 50 Jurkat
Procedure, shortened: (§1)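 Cells seeded 24 h before treatment in RPMI-1640 with 5% or 10% FCS. Compounds added at 10, 3, 1 and 0.3 μM final and incubated 72 h at 37 °C, 7.5% CO2. MTS reagent then added for 3 h, absorbance read at 492 nm.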

[1] = system: adherent cells or suspension cells; assay: Hoechst 33342 nuclear staining (fraction of apoptotic nuclei); assay type: cell-based; parameters: key: 0 relating to no activity; 1 relating to weak activity comprising less than 70% of the cells; score 2 relating to strong activity comprising more than 70% of the cells
HT1080 = assay: MTS proliferation assay, HT1080; assay type: cell-based, human; conditions: Homo sapiens, HT-1080; HT1080, 72 h incubation; read-out: MTS proliferation assay IC 50 HT1080
Procedure, shortened: as §1

MRC5 = assay: MTS proliferation assay, MRC5; assay type: cell-based; conditions: Homo sapiens; MRC5, 72 h incubation; read-out: MTS proliferation assay IC 50 MRC5
Procedure, shortened: (§2)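 Cells seeded 24 h before treatment in RPMI-1640 with 5% or 10% FCS, then exposed 72 h at 37 °C, 7.5% CO2, to compound at final 10, 3, 1 and 0.3 μM. Viability by MTS, 3 h further incubation, absorbance 492 nm.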

Jily = assay: MTS proliferation assay, Jily; assay type: cell-based; conditions: 72 h incubation, read-out: MTS proliferation assay IC 50 Jily
Procedure, shortened: as §2

HeLa = assay: MTS proliferation assay, HeLa; assay type: cell-based, human; conditions: Homo sapiens, 72 h incubation, read-out: MTS proliferation assay IC 50 HeLa
Procedure, shortened: as §1

Structure (SMILES): Nc1nonc1-c1nc2ccccc2n1CC(=O)c1ccc(Cl)c([N+](=O)[O-])c1 [Example 66, 4-[1-(4-Chloro-3-nitrophenacyl)-1H-benzimidazol-2-yl]-furazan-3-ylamine]
- IC50 (Jurkat): 10 to 100 nM
- Hoechst 33342 nuclear staining score ([1]; H460, conc 0.01 μm): 0
- Hoechst 33342 nuclear staining score ([1]; H460, conc 0.1 μm): 0
- Hoechst 33342 nuclear staining score ([1]; H460, conc 1 μm): 2 (score 2 relating to strong activity comprising more than 70% of the cells)
- Hoechst 33342 nuclear staining score ([1]; HeLa, conc 0.01 μm): 0
- Hoechst 33342 nuclear staining score ([1]; HeLa, conc 0.1 μm): 0
- Hoechst 33342 nuclear staining score ([1]; HeLa, conc 1 μm): 2 (score 2 relating to strong activity comprising more than 70% of the cells)
- Hoechst 33342 nuclear staining score ([1]; Jily, conc 0.01 μm): 0
- Hoechst 33342 nuclear staining score ([1]; Jily, conc 0.1 μm): 0
- Hoechst 33342 nuclear staining score ([1]; Jily, conc 1 μm): 2 (score 2 relating to strong activity comprising more than 70% of the cells)
- Hoechst 33342 nuclear staining score ([1]; Jurkat, conc 0.01 μm): 0
- Hoechst 33342 nuclear staining score ([1]; Jurkat, conc 0.1 μm): 1 (1 relating to weak activity comprising less than 70% of the cells)
- Hoechst 33342 nuclear staining score ([1]; Jurkat, conc 1 μm): 2 (score 2 relating to strong activity comprising more than 70% of the cells)
- Hoechst 33342 nuclear staining score ([1]; MRC5, conc 0.01 μm): 0
- Hoechst 33342 nuclear staining score ([1]; MRC5, conc 0.1 μm): 0
- Hoechst 33342 nuclear staining score ([1]; MRC5, conc 1 μm): 1 (1 relating to weak activity comprising less than 70% of the cells)
- Hoechst 33342 nuclear staining score ([1]; PBLs, conc 0.01 μm): 0
- Hoechst 33342 nuclear staining score ([1]; PBLs, conc 0.1 μm): 0
- Hoechst 33342 nuclear staining score ([1]; PBLs, conc 1 μm): 0
- IC50 (HT1080): 100 to 1000 nM
- melting point: 198 to 200 °C
- IC50 (MRC5): 100 to 1000 nM
- IC50 (Jily): 100 to 1000 nM
- IC50 (HeLa): 100 to 1000 nM
